Measured values: patent US8802135B2, “Delivery system for remote treatment of an animal” (SmartVet Pty Ltd., priority 2006, dated 2014)

Tests used:
[1] = primate skin types in contact with pure ivermectin; cited from earlier work
wireworm = assay: efficacy trial against endo-parasite wireworm; assay type: in vivo, cattle; conditions: ~200 kg cow, slaughtered 3 weeks after treatment
Description: The purpose of the trial was to establish the efficacy of biologically active agent when administered by the system according to the present invention in treating cattle for the endo-parasite wireworm.
Two cattle of similar age and weight (˜200 kg) were infected with wireworm parasite to the level of 6000 to 8000 worm eggs per gram of faeces. One cow was treated with the biologically active agent in its ‘pour on’ form and the other cattle were treated with two dosage projectiles fired from a distance of approx 20 meters with a CO2 propelled launcher with an impact velocity of about 130 ft/sec.
Each projectile was spherical and made from soft gelatine compound with the shell being of about 2 mm thick. The size was sufficient to hold about 10 ml of the liquid biologically active agent comprising the following constituent:
10 mg of abamectin (at a dosage concentration of 1 mg per 10 kg of body mass)
5% solution of the solvent/transdermal carrier propylene glycol (the proprietary brand Icinol)
a standard turquoise, inert pharmaceutical colorant known as FC & D blue
The impact area of the ruptured projectiles was the hind quarter and lower neck/shoulder of the cattle.
The cattle were slaughtered 3 weeks after treatment and the stomach contents/linings examined under laboratory conditions.

[2] = drug trials: absorption of abamectin from projectile vs Pour On; assay type: in vivo; conditions: applied in a projectile at 5 g/l
Source text: The system has been adapted for use in Africa for treating antelope species. Each projectile was designed to treat a 100 kg animal.

Substance	active agent absorbed into the bloodstream [1]	free of parasite (wireworm; 'pour on' form)	free of internal parasite infection (wireworm; two dosage projectiles) [%]	absorption of the active compared with traditional Pour On application ([2]; antelope species)	absorption of the active compared with traditional Pour On application ([2]; cattle)
ivermectin [pure ivermectin]	less than 1%	–	–	–	–
abamectin	–	approx 96%	100	at least as good as	at least as good as
